pIC50: −log10 of the molar value.

T1 sequence (P19156 2-1034 limits assumed): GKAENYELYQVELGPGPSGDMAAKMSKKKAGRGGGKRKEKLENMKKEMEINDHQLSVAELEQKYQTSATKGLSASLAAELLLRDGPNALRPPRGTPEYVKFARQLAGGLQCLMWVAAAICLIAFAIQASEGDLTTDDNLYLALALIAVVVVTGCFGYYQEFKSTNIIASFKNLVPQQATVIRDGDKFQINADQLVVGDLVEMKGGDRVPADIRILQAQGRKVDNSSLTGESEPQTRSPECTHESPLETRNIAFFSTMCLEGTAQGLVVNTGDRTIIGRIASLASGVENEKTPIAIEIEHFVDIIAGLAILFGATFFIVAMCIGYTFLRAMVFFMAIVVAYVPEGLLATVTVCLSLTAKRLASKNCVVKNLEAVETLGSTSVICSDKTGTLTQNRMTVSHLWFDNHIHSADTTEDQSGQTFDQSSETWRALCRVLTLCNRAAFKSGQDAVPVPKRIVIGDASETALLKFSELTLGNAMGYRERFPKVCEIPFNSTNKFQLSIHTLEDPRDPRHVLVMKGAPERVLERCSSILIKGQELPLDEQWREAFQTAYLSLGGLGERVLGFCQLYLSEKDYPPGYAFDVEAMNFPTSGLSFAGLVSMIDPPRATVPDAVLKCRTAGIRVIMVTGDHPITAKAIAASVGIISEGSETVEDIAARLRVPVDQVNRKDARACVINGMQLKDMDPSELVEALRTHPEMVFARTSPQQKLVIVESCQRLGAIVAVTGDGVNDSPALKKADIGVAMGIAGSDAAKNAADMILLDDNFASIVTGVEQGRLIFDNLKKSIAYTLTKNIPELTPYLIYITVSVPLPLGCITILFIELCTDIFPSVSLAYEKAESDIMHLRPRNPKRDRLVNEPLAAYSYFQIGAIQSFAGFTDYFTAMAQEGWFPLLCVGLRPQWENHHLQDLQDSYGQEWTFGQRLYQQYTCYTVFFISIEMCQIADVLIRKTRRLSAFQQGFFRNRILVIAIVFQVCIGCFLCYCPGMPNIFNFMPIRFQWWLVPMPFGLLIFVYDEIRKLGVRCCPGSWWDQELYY
T1 sequence (P18434 whole entry partner): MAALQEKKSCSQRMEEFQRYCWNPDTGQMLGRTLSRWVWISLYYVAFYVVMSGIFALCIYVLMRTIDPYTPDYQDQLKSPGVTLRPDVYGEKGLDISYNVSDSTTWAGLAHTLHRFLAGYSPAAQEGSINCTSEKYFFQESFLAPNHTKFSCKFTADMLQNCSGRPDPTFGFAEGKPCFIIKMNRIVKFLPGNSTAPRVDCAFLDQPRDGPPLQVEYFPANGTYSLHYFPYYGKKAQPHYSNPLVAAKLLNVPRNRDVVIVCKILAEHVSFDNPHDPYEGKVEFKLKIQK

The experiment addresses T1, H^+ K^+ ATPase (Sus scrofa, UniProt P19156).
T1 construct: Lyophilised gastric vesicles were prepared from pig fundic mucosa; from tissue; host or cells: pig fundic mucosa (lyophilised gastric vesicles)
The experiment in a line: K^+ -stimulated ATPase activity in lyophilised gastric vesicles (H^+ K^+ ATPase Activity). Type of experiment: biochemical. To be noted: inhibition of K^+ -stimulated ATPase activity, lyophilised gastric vesicles from pig fundic mucosa, 37° C., pH 7.0, 1 mM KCl, 2 mM Na2 ATP, 30 minutes. The method, then:
The effects of a single high concentration ([…]) of a compound of structure (I) on K^+ -stimulated ATPase activity in lyophilised gastric vesicles was determined. Preferred compounds of structure (I) were also tested over a range of concentrations to determine IC50 values.
Lyophilised gastric vesicles were prepared from pig fundic mucosa after the method of Keeling et. al. (Biochem. Pharmacol, 34, 2967, 1985).
K^+ -stimulated ATPAse activity was determined at 37° C. in the presence of the following: 10 mM Pipes/Tris buffer pH 7.0, 2 mM MgSO4, 1 mM KCl, 2 mM Na2 ATP and […] lyophilised gastric vesicles. After incubation for 30 minutes, the inorganic phosphate hydrolysed from ATP was determined by the method of Yoda and Hokin (Biochem. Biophys, Res. Commun. 40, 880, 1970).
Compounds of structure (I) were dissolved in dimethylsulphoxide which up to the highest concentration used had no effect on K^+ -stimulated ATPase activity.
The effect of the highest concentration of each compound of structure (I) on the recovery of a standard amount of inorganic phosphate was also determined.
With `CCOC(=O)c1cnc2c(OC)cccc2c1Nc1ccc(O)cc1C` [Compound 9, Ethyl 8-methoxy-4-(4-hydroxy-2-methylphenylamino)-quinoline-3-carboxylate], the pIC50 was 7.10.

In turn, `COc1cccc2c(Nc3ccc(O)cc3C)c(C(=O)C(C)C)cnc12` [Compound 12, 3-isobutyryl-4-(4-hydroxy-2-methylphenylamino)-8-methoxyquinoline] had a negative logarithm of the IC50 (pIC50) of 6.80.

In turn, `CCCC(=O)c1cnc2ccc(O)cc2c1Nc1ccc(O)cc1C` [Compound 16, 3-butyryl-4-(4-hydroxy-2-methylphenylamino)-6-hydroxyquinoline] had a negative-log IC50 (pIC50) of 7.15.

In turn, `CCCC(=O)c1cnc2c(OC)cc(O)cc2c1Nc1ccc(O)cc1C` [Compound 17, 3-butyryl-4-(4-hydroxy-2-methylphenylamino)-6-hydroxy-8-methoxyquinoline] had a pIC50 of 5.89.

As a reminder, the pIC50 is the IC50 on a negative log10 scale, so that one unit is a factor of ten. High values mean a small IC50, low ones a large IC50.

For the origin of these results see patent US5143920A, “Substituted 4-aminoquinoline derivatives as gastric secretion inhibitors” (SmithKline Beckman Intercredit B.V., priority 1988, dated 1992).
